Laboratory results from patent US11021481B2, “Substituted isoindolin-1-ones and 2,3-dihydro-1h-pyrrolo[3,4-c]pyridin-1-ones as HPK1 antagonists” (Nimbus Saturn, Inc., priority 2019, dated 2021).

Target: HPK1 (Homo sapiens (Human), UniProt Q92918)
Test: HPK1 biochemical enzyme assay (microfluidic mobility shift assay)
Conditions: 1.5 nM HPK1, ATP 1 mM final, 30 min preincubation, 60 min at RT, Caliper EZ Reader; read-out: HPK1 1000UMATP caliper IC50
How it was run: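 Mobility shift readout of HPK1 activity after a 60 min RT reaction with 1 mM ATP, 1 μM substrate and 5 mM MgCl2. Enzyme/substrate mix was first exposed to compounds for 30 min, using ten-point curves topping at 3 μM final.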

Sequence of HPK1 (Q92918 whole entry): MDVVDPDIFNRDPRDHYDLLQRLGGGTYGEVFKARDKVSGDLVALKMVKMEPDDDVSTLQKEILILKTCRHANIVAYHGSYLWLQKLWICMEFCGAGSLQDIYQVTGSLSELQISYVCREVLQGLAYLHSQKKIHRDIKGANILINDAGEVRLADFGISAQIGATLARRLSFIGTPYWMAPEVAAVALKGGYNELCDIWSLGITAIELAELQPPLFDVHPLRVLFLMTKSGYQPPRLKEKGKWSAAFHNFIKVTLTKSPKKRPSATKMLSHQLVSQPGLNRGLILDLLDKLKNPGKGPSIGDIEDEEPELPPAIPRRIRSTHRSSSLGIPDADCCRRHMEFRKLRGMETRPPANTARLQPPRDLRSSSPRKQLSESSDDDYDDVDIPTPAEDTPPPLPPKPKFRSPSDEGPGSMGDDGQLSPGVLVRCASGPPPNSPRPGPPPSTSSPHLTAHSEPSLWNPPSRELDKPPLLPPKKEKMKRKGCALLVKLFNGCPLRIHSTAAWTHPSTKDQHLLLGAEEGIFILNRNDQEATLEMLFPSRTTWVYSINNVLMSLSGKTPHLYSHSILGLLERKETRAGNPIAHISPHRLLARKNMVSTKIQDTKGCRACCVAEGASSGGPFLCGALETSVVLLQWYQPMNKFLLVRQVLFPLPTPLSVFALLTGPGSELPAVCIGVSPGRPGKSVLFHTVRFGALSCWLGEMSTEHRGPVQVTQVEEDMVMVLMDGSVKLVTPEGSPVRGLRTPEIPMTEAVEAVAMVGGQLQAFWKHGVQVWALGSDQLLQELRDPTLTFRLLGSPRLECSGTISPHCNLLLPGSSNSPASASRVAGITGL

Row | IC50 [µM] | SMILES
1 | 0.1 to 1 | Cn1ccc2c(-c3ncc(Nc4cccc(N5CC6(CCN6)C5)n4)c4c3CNC4=O)ccnc21 [I-680, 7-((6-(l,6-diazaspiro[3,3]heptan-6-yl)pyridin-2-yl)amino)-4-(1-methyl-1H-pyrrolo[2,3-b]pyridin-4-yl)-2,3-dihydro-1H-pyrrolo[3,4-c]pyridin-1-one]
2 | < 0.1 | CNC1CCN(c2ccc(Nc3ccc(-c4cnc5cccnn45)c4c3C(=O)NC4)nc2)CC1 [I-91, 4-imidazo[1,2-b]pyridazin-3-yl-7-[[5-[4-(methylamino)-1-piperidyl]-2-pyridyl]amino] isoindolin-1-one]
3 | < 0.1 | Cn1ccc2c(-c3ncc(Nc4ccc([C@@H]5CCOC5)c(CN)n4)c4c3CNC4=O)ccnc21 [I-836, (S)-7-((6-(aminomethyl)-5-(THF-3-yl)pyridin-2-yl)amino)-4-(1-methyl-1H-pyrrolo[2,3-b]pyridin-4-yl)-2,3-dihydro-1H-pyrrolo[3,4-c]pyridin-1-one]
4 | < 0.1 | Cc1ccn2c(-c3ncc(Nc4ccc(N5CCN(C)CC5)cn4)c4c3CNC4=O)cnc2c1 [I-73, 4-(7-methylimidazo [1,2-a]pyridin-3-yl)-7-[[5-(4-methylpiperazin-1-yl)-2-pyridyl]-amino]-2,3-dihydropyrrolo [3,4-c]pyridin-1-]
5 | < 0.1 | O=C1NCc2c(-c3cnc4cc(F)ccn34)ccc(Nc3ccc(N4CCC[C@](O)(CN5CCOCC5)C4)cn3)c21 [I-657, (S)-4-(7-fluoroimidazo [1,2-a]pyridin-3-yl)-7-((5-(3-hydroxy-3-(morpholinomethyl)piperidin-1-yl)pyridin-2-yl)amino)isoin-dolin-1-one]
6 | < 0.1 | CN(C)C(C)(C)C1CCCN(c2ccc(Nc3ccc(-c4cnc5cc(F)ccn45)c4c3C(=O)NC4)nc2)C1 (stereo not shown) [I-582, 7-((5-(3-(2-(dimethylami-no)propan-2-yl)piperidin-1-yl)pyridin-2-yl)amino)-4-(7-fluoroimidazo [1,2-a]pyridin-3-yl)isoindolin-1-one]
7 | < 0.1 | CC(C)(O)[C@@H]1CN(c2ccc(Nc3ccc(-c4cnc5cc(C(F)F)ccn45)c4c3C(=O)NC4)nc2)CCO1 [I-492, 4-[7-(difluoromethyl)-imidazo[1,2-a]pyridin-3-yl]-7-[[5-[(2S)-2-(1-hydroxy-1-methyl-ethyl)morpholin-4-yl]-2-pyridyl]amino]isoindolin-1-one]
8 | < 0.1 | CN(C)C(C)(C)C1CCCN(c2ccc(Nc3ccc(-c4cnc5cc(F)ccn45)c4c3C(=O)NC4)nc2)C1 (stereo in doubt) [I-606, (R)-7-((5-(3-(2-(dimethylami-no)propan-2-yl)piperidin-1-yl)pyridin-2-yl)amino)-4-(7-fluoroimidazo [1,2-a]pyridin-3-yl)isoindolin-1-one]
9 | < 0.1 | CN(C)CC1COCCN1c1ccc(Nc2ccc(-c3cnc4cc(F)ccn34)c3c2C(=O)NC3)nc1 (stereo not shown) [I-517, 7-[ [5-[3-[(dimethylamino)-methyl]mor-pholin-4-yl]-2-pyridyl]amino]-4-(7-fluoroimidazo [1,2-a]pyridin-3-yl)isoindolin-1-one]
10 | < 0.1 | C[C@@H](c1ccc(Nc2ccc(-c3cnc4cc(F)ccn34)c3c2C(=O)NC3)nc1)N1CCC[C@H](O)C1 (stereo in doubt) [I-513, 4-(7-f1uoroimidazo [1,2-a]pyridin-3-yl)-7-((5-((S)-1-((S)-3-hydroxypiperidin-1-yl)ethyl)pyridin-2-yl)amino)isoin-dolin-1-one]
11 | 0.1 to 1 | O=C1NCc2c(-c3cnc4cccnn34)ncc(Nc3ccc(N4CCC(O)CC4)cn3)c21 [I-199, 7-[[5-(4-hydroxy-1-piperidyl)-2-pyripyl]amino]-4-imidazo[1,2-b]pyridazin-3-yl-2,3-dihydropyrrolo [3,4-c]pyridin-1-one]
12 | < 0.1 | CN1CCN(c2ccc(Nc3ccc(-c4ccnc5c4ccn5C4CC4)c4c3C(=O)NC4)nc2)CC1 [I-265, 4-(1-cyclopropyl-1H-pyrrolo[2,3-b]pyridin-4-yl)-7-((5-(4-methylpiperazin-1-yl)pyridin-2-yl)amino)isoin-dolin-1-one]
13 | < 0.1 | CO[C@H]1CC[C@H](CO)N(c2ccc(Nc3ccc(-c4cnn5c4CCCC5)c4c3C(=O)NC4)nc2)C1 [I-571, 7-((5-((2R,5S)-2-(hydroxymeth-yl)-5-methoxy-piperidin-1-yl)pyridin-2-yl)amino)-4-(4,5,6,7-tetrahydropyra-zolo[1,5-a]pyridin-3-yl)isoindolin-1-one]
14 | < 0.1 | Cn1nc(Nc2ccc(-c3cnc4cc(F)ccn34)c3c2C(=O)NC3)cc1C1(O)CCOCC1 [I-566, 4-(7-fluoroimidazo [1,2-a]pyridin-3-yl)-7-((5-(4-hydroxytetrah-ydro-2H-pyran-4-yl)-1-methyl-1H-pyrazol-3-yl)amino)isoin-dolin-1-one]
15 | 0.1 to 1 | Cc1nc2ccccn2c1-c1ccc(Nc2ccc(N3CCN(C)CC3)cn2)c2c1CNC2=O [I-50, 4-(2-methylimidazo [1,2-a]pyridin-3-yl-)-7-[[5-(4-methylpiperazin-1-yl)-2-pyridyl]amino] isoindolin-1-1-one]
16 | < 0.1 | O=C1NCc2c(-c3cnc4cc(F)ccn34)ccc(Nc3ccc([C@H]4CCOC4)c(CN4CCC[C@@H]4CO)n3)c21 [I-825, 4-(7-fluoroimidazo [1,2-a]pyridin-3-yl)-7-((6-(((R)-2-(hydroxymeth-yl)pyrrolidin-1-yl]methyl)-5-((R)-THF-3-yl)pyridin-2-yl)amino)isoin-dolin-1-one]
17 | < 0.1 | Cc1cc(Nc2cnc(-c3ccnc4c3ccn4C)c3c2C(=O)NC3)nc(N2CC[C@H]3CN(C)C[C@H]32)c1 [I-643, 4-(1-methyl-1H-pyrrolo[2,3-b]pyridin-4-yl)-7-((4-methyl-6-((3aS,6aS)-5-methylhcxahydropyrrolo[3,4-b]pyrrol-1(2H)-yl)pyridin-2-yl)amino)-2,3-dihydro-1H-pyrrolo[3,4-c]pyridin-1-one]
18 | > 1 | CN1CCN(c2ccc(Nc3cnc(-c4c[nH]c5nc(C(F)(F)F)ccc45)c4c3C(=O)NC4)nc2)CC1 [I-253, 7-((5-(4-methylpiperazin-1-yl)pyridin-2-yl)amino]-4-(6-(trifluorometh-yl)-1H-pyrrolo[2,3-b]pyridin-3-yl)-2,3-dihydro-1H-pyrrolo[3,4-c]pyridin-1-one]
19 | < 0.1 | O=C1NCc2c(-c3cnc4cc(F)ccn34)ccc(Nc3ccc([C@@H]4CCOC4)c(CNCC(F)(F)F)n3)c21 [I-751, (S)-4-(7-fluoroimidazo [1,2-a]pyridin-3-yl)-7-((5-(tetrahydrofuran-3-yl)-6-(((2,2,2-trifluoroethyl)amino)methyl)pyridin-2-yl)amino)isoin-dolin-1-one]
20 | < 0.1 | COCC1(c2ccc(Nc3ccc(-c4cnc5cc(F)ccn45)c4c3C(=O)NC4)nc2CN(C)C)CCOCC1 [I-831]
21 | 0.1 to 1 | C[C@@H](c1nc(Nc2ccc(-c3cnc4cc(F)ccn34)c3c2C(=O)NC3)ccc1[C@H]1CCOC1)N(C)C (single isomer, unassigned) [I-818]

Row | SMILES | IC50 [µM]
22 | CN1CCC(C)(c2cccc(Nc3cnc(-c4ccnc5c4ccn5C)c4c3C(=O)NC4)n2)CC1 [I-575, 7-((6-(l,4-dimethyl-piperidin-4-yl)pyridin-2-yl)amino)-4-(1-methyl-1H-pyrrolo[2,3-b]pyridin-4-yl)-2,3-dihydro-1H-pyrrolo[3,4-c]pyridin-1-one] | 0.1 to 1
